16 compounds from PubChem BioAssay AID256 (DTP/NCI, 2004) can be followed below.

“And” between values parts separate entries of the source, which are not always exact repeats. Identical values can stand only once. Inconclusive results and toxic doses are left out.

The test relates to CD2F1 mice, L1210 leukemia ip, survival T/C. As to the kind of experiment: NCI In Vivo Anticancer Drug Screen. Data for tumor model L1210 Leukemia (intraperitoneal) in CD2F1 (CDF1) mice. The settings on record: endpoint: mean survival time, higher = longer survival. The method in brief: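 Tumor-bearing mice (transplanted tumor) were split into treated and vehicle control groups, and the measured endpoint of each treated group was divided by that of its vehicle controls.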

The mark [1] stands for this setting: dose: 25.0 mg/kg/injection, schedule: Q01DX009 (ip), vehicle: saline with Tween-80.
Where [2] appears, read: dose: 50.0 mg/kg/injection, schedule: Q01DX009 (ip), vehicle: saline with Tween-80.
The mark [3] stands for this setting: dose: 100.0 mg/kg/injection, schedule: Q01DX009 (ip), vehicle: saline with Tween-80.
The mark [4] stands for this setting: dose: 200.0 mg/kg/injection, schedule: Q01DX009 (ip), vehicle: saline with Tween-80.
Setting [5] is: dose: 100.0 mg/kg/injection, schedule: Q04DX003 (ip), vehicle: saline with Tween-80.
Setting [6] is: dose: 200.0 mg/kg/injection, schedule: Q04DX003 (ip), vehicle: saline with Tween-80.
The mark [7] stands for this setting: dose: 400.0 mg/kg/injection, schedule: Q04DX003 (ip), vehicle: saline with Tween-80.

On to `CN1CCN(c2ncnc3c2ncn3C2OC(CO)C(O)C2O)CC1` (configuration not stated), for which the T/C runs as follows: (dose: 12.5 mg/kg/injection, schedule: Q01DX005 (ip), vehicle: water) 106 % of control; (dose: 25.0 mg/kg/injection, schedule: Q01DX005 (ip), vehicle: water) 106 % of control; (dose: 50.0 mg/kg/injection, schedule: Q01DX005 (ip), vehicle: water) 112 % of control; (dose: 100.0 mg/kg/injection, schedule: Q01DX005 (ip), vehicle: water) 106 % of control; (dose: 200.0 mg/kg/injection, schedule: Q01DX005 (ip), vehicle: water) 102 % of control.
On to `O=C(OCc1ccccc1)C1CC1` (tested in a mixture with another compound), for which the T/C is 86 % of control under setting [1]; 101 % of control (dose: 50.0 mg/kg/injection, schedule: Q01DX005 (ip), vehicle: saline with Tween-80); 96 % of control under setting [2]; 102 % of control (dose: 50.0 mg/kg/injection, schedule: Q04DX002 (ip), vehicle: saline); 93 % of control (dose: 100.0 mg/kg/injection, schedule: Q01DX005 (ip), vehicle: saline with Tween-80); 86 % of control under setting [3]. Further, the T/C runs as follows: (dose: 100.0 mg/kg/injection, schedule: Q04DX002 (ip), vehicle: saline) 97 % of control; (dose: 200.0 mg/kg/injection, schedule: Q01DX005 (ip), vehicle: saline with Tween-80) 97 % of control; under setting [4], 86 % of control; (dose: 200.0 mg/kg/injection, schedule: Q04DX002 (ip), vehicle: saline) 105 % of control; (dose: 400.0 mg/kg/injection, schedule: Q04DX002 (ip), vehicle: saline) 97 % of control.
With `CC[PH+](CC)CC[S-].CC[PH+](CC)CC[S-].[Au+].[Au+]`, the T/C was 102 % of control and 107 % of control (dose: 2.5 mg/kg/injection, schedule: Q01DX009 (ip), vehicle: Klucel (hydroxypropylcellulose) (HPC)); 95 % of control and 106 % of control (dose: 5.0 mg/kg/injection, schedule: Q01DX009 (ip), vehicle: Klucel (hydroxypropylcellulose) (HPC)); 92 % of control and 109 % of control (dose: 10.0 mg/kg/injection, schedule: Q01DX009 (ip), vehicle: Klucel (hydroxypropylcellulose) (HPC)); 97 % of control and 109 % of control (dose: 20.0 mg/kg/injection, schedule: Q01DX009 (ip), vehicle: Klucel (hydroxypropylcellulose) (HPC)); 89 % of control (dose: 40.0 mg/kg/injection, schedule: Q01DX009 (ip), vehicle: Klucel (hydroxypropylcellulose) (HPC)); 101 % of control (dose: 80.0 mg/kg/injection, schedule: Q01DX009 (ip), vehicle: Klucel (hydroxypropylcellulose) (HPC)).
As for `Cc1ccc(SCc2c(COc3ccc(Cl)cc3)sc3ccc(Cl)cc23)cc1`, the T/C is, setting by setting: under setting [5], 92 % of control; under setting [6], 92 % of control; under setting [7], 94 % of control.
For `N#CCCC(C#N)(c1cccnc1)N1CCOCC1` (configuration not stated), the T/C (dose: 12.5 mg/kg/injection, schedule: Q01DX009 (ip), vehicle: Klucel (hydroxypropylcellulose) (HPC)) was 93 % of control; the T/C (dose: 25.0 mg/kg/injection, schedule: Q01DX009 (ip), vehicle: Klucel (hydroxypropylcellulose) (HPC)) was 97 % of control; the T/C (dose: 25.0 mg/kg/injection, schedule: Q04DX002 (ip), vehicle: saline with Tween-80) is 109 % of control.
For `NC(=O)C(c1cccs1)c1cccs1`, the T/C runs as follows: (dose: 100.0 mg/kg/injection, schedule: Q04DX002 (ip), vehicle: saline with Tween-80) 93 % of control; (dose: 200.0 mg/kg/injection, schedule: Q04DX002 (ip), vehicle: saline with Tween-80) 87 % of control; (dose: 400.0 mg/kg/injection, schedule: Q04DX002 (ip), vehicle: saline with Tween-80) 90 % of control.
Turning to `Cc1cc(=O)c(Cl)cc(=O)[nH]1`, the T/C reads like this: (dose: 12.5 mg/kg/injection, schedule: Q01DX001 (ip), vehicle: saline with Tween-80) 95 % of control; (dose: 25.0 mg/kg/injection, schedule: Q01DX001 (ip), vehicle: saline with Tween-80) 95 % of control.
Consider `COc1cccc(/C=N/NC(=O)c2ccccc2N2CCCC2)c1O`, for which the T/C was 104 % of control (dose: 12.5 mg/kg/injection, schedule: Q01DX009 (ip), vehicle: olive oil, sesame oil, peanut oil); 96 % of control (dose: 25.0 mg/kg/injection, schedule: Q01DX009 (ip), vehicle: olive oil, sesame oil, peanut oil); 102 % of control (dose: 50.0 mg/kg/injection, schedule: Q01DX009 (ip), vehicle: olive oil, sesame oil, peanut oil); 94 % of control (dose: 100.0 mg/kg/injection, schedule: Q01DX009 (ip), vehicle: olive oil, sesame oil, peanut oil); 96 % of control (dose: 200.0 mg/kg/injection, schedule: Q01DX009 (ip), vehicle: olive oil, sesame oil, peanut oil).
Take `O.O=S(=O)(O)O.[NH-]C1CCCC1[NH-].[Pt+2]` (configuration not stated): the T/C is 116 % of control and 120 % of control (dose: 0.5 mg/kg/injection, schedule: Q01DX009 (ip), vehicle: dextrose); 102 % of control and 106 % of control (dose: 0.5 mg/kg/injection, schedule: Q04DX003 (ip), vehicle: dextrose); 100 % of control and 104 % of control (dose: 1.0 mg/kg/injection, schedule: Q01DX001 (ip), vehicle: dextrose); 116 % of control and 112 % of control (dose: 1.0 mg/kg/injection, schedule: Q04DX003 (ip), vehicle: dextrose); 160 % of control (dose: 2.0 mg/kg/injection, schedule: Q01DX009 (ip), vehicle: dextrose); 119 % of control (dose: 2.0 mg/kg/injection, schedule: Q04DX003 (ip), vehicle: dextrose). In addition, the T/C was 108 % of control (dose: 4.0 mg/kg/injection, schedule: Q01DX009 (ip), vehicle: dextrose); 165 % of control (dose: 4.0 mg/kg/injection, schedule: Q04DX003 (ip), vehicle: other); 151 % of control (dose: 6.0 mg/kg/injection, schedule: Q01DX001 (ip), vehicle: dextrose); 160 % of control and 188 % of control (dose: 8.0 mg/kg/injection, schedule: Q04DX003 (ip), vehicle: dextrose); 160 % of control (dose: 10.0 mg/kg/injection, schedule: Q01DX001 (ip), vehicle: dextrose); 102 % of control (dose: 16.0 mg/kg/injection, schedule: Q04DX003 (ip), vehicle: dextrose).
Regarding `C[N+](C)(C)C(C1=CCCC1=O)c1ccccc1` (configuration not stated), the T/C was 103 % of control (dose: 75.0 mg/kg/injection, schedule: Q01DX001 (ip), vehicle: saline); 91 % of control (dose: 150.0 mg/kg/injection, schedule: Q01DX001 (ip), vehicle: saline); 100 % of control (dose: 300.0 mg/kg/injection, schedule: Q01DX001 (ip), vehicle: saline).
With `O=CNNC=O`, the T/C was 94 % of control under setting [3]; 107 % of control under setting [5]; 92 % of control under setting [4]; 96 % of control under setting [6]; 97 % of control (dose: 400.0 mg/kg/injection, schedule: Q01DX009 (ip), vehicle: saline with Tween-80); 100 % of control under setting [7].
Take `CCOC(=O)S(=O)(=O)c1ccc(C)cc1`: the T/C runs as follows: (dose: 100.0 mg/kg/injection, schedule: Q01DX009 (ip), vehicle: acetone) 101 % of control; (dose: 200.0 mg/kg/injection, schedule: Q01DX009 (ip), vehicle: acetone) 109 % of control; (dose: 400.0 mg/kg/injection, schedule: Q01DX009 (ip), vehicle: acetone) 114 % of control.
Regarding `O=C1c2ccccc2C(=O)N1C1CCCCC1`, the T/C reads like this: under setting [5], 100 % of control; under setting [6], 95 % of control; under setting [7], 95 % of control.
Regarding `Cc1cccnc1F`, the T/C was 95 % of control (dose: 12.5 mg/kg/injection, schedule: Q01DX009 (ip), vehicle: saline with Tween-80); 97 % of control under setting [1]; 100 % of control under setting [2]; 93 % of control under setting [5]; 96 % of control under setting [6]; 96 % of control under setting [7].
For `CCOC(=O)Nc1cc(NC/C(CCc2ccccc2)=N/O)c([N+](=O)[O-])c(N)n1`, the T/C by setting is: (dose: 100.0 mg/kg/injection, schedule: Q01DX001 (ip), vehicle: Klucel (hydroxypropylcellulose) (HPC)) 96 % of control; (dose: 200.0 mg/kg/injection, schedule: Q01DX001 (ip), vehicle: Klucel (hydroxypropylcellulose) (HPC)) 91 % of control; (dose: 400.0 mg/kg/injection, schedule: Q01DX001 (ip), vehicle: Klucel (hydroxypropylcellulose) (HPC)) 90 % of control.
Take `O=P(OCCCCl)(OCCCCl)C(Cl)Cl`: the T/C (dose: 100.0 mg/kg/injection, schedule: Q01DX001 (ip), vehicle: saline) is 102 % of control; the T/C (dose: 200.0 mg/kg/injection, schedule: Q01DX001 (ip), vehicle: saline) was 102 % of control; the T/C (dose: 400.0 mg/kg/injection, schedule: Q01DX001 (ip), vehicle: saline) was 103 % of control.
